# Measurements: US20090275583A1, “ANTIVIRAL COMPOUNDS AND USE THEREOF” (Myriad Genetics, Incorporated, priority 2006, published 2009)
# Where two headings read alike, the source gives them in different places.
# How the values were obtained:
# [1] = tested on: HIV-1 laboratory strain, NL4-3; experiment: MT-4 cytoprotection assay; type: cell-based
# Summary of the method: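 MT-4 cells mock- or batch-infected with NL4-3 (MOI 0.0005) for 2 h, washed, then cultured 4 days with increasing compound concentrations. Viability read by WST-1 tetrazolium reduction: cytoprotection in infected cells, toxicity in mock-infected cells.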
# [2] = tested on: HIV-1NL4-3; experiment: P4-MAGI assay; type: cell-based
# Summary of the method: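 HeLa-derived CD4+ P4 cells carrying an LTR-driven lacZ were infected with HIV-1NL4-3 at MOI 1 with DEAE-Dextran, then compound added in increasing concentrations right after virus; infection reported as Tat-induced β-galactosidase. TC50 measured by WST-1 in mock-infected cells.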
# [3] = Human immunodeficiency virus 1, NL43, MT4, 96 h, MT-4 cells, four days incubation, WST-1 readout, read-out: MT4 EC50
# [4] = Human immunodeficiency virus 1, 24 h, P4 cells, 24 hour incubation, β-galactosidase expression, read-out: P4-MAGI IC50
# [5] = Human immunodeficiency virus 1, NL43, less than about 100 nm, read-out: MT-4 assay EC50 (concentration of compound that reduces the virus induced cytopathic effect by 50%)
# [6] = Human immunodeficiency virus 1, text statement, less than about 100 nm, read-out: P4-MAGI assay IC50
Compound,"EC50 [1, 3]","IC50 [2, 4]","EC50 [1, 5]","IC50 [2, 6]"
C=C(C)[C@@H]1CC[C@]2(C(=O)NCc3cccc(C(=O)NCCc4ccccc4C(=O)O)c3)CC[C@]3(C)C(CCC4[C@@]5(C)CC[C@H](O)C(C)(C)C5CC[C@]43C)C12 (some centres unmarked) [Example 10],1300 nM,128 nM,–,–
C=C(C)[C@@H]1CC[C@]2(C(=O)NCCc3cccc(C(=O)NCc4ccc(C(=O)N[C@@H](C(=O)O)[C@@H](C)N5CCOCC5)cc4)c3)CC[C@]3(C)C(CCC4[C@@]5(C)CC[C@H](O)C(C)(C)C5CC[C@]43C)C12 (some centres unmarked) [Example 176],57 nM,72 nM,–,–
C=C(C)[C@@H]1CC[C@]2(C(=O)NCc3cccc(C(=O)NCCCCC(=O)O)c3)CC[C@]3(C)C(CCC4[C@@]5(C)CC[C@H](O)C(C)(C)C5CC[C@]43C)C12 (some centres unmarked) [Example 1],615 nM,49.3 nM,–,–
C=C(C)[C@@H]1CC[C@]2(C(=O)NCCc3cccc(-c4nnc(Cc5ccc(-c6nn[nH]n6)cc5)o4)c3)CC[C@]3(C)C(CCC4[C@@]5(C)CC[C@H](O)C(C)(C)C5CC[C@]43C)C12 (some centres unmarked) [Example 217],49 nM,87 nM,–,–
C=C(C)[C@@H]1CC[C@]2(C(=O)NCCc3cccc(C(=O)NCc4cccc(C(=O)OC)n4)c3)CC[C@]3(C)C(CCC4[C@@]5(C)CC[C@H](O)C(C)(C)C5CC[C@]43C)C12 (some centres unmarked) [Example 154],8 nM,34 nM,–,–
C=C(C)[C@@H]1CC[C@]2(C(=O)NCCc3cccc(C(=O)NCc4cccc(COCc5cccc(C(=O)O)c5)c4)c3)CC[C@]3(C)C(CCC4[C@@]5(C)CC[C@H](O)C(C)(C)C5CC[C@]43C)C12 (some centres unmarked) [Example 208],42.5 nM,28.9 nM,–,–
C=C(C)[C@@H]1CC[C@]2(C(=O)NCCc3cccc(C(=O)NCc4ccc(C(=O)NCCN5CCC(O)CC5)cc4)c3)CC[C@]3(C)C(CCC4[C@@]5(C)CC[C@H](O)C(C)(C)C5CC[C@]43C)C12 (some centres unmarked) [Example 173],2 nM,28 nM,–,–
C=C(C)[C@@H]1CC[C@]2(C(=O)NCCc3cccc(C(=O)NCc4nc(C(=O)O)co4)c3)CC[C@]3(C)C(CCC4[C@@]5(C)CC[C@H](O)C(C)(C)C5CC[C@]43C)C12 (some centres unmarked) [Example 153],14 nM,44.7 nM,–,–
C=C(C)[C@@H]1CC[C@]2(C(=O)NCCc3cccc(C(=O)NCc4cccc(C(=O)O)c4)c3)CC[C@]3(C)C(CCC4[C@@]5(C)CC[C@H](O)C(C)(C)C5CC[C@]43C)C12 (some centres unmarked) [Example 58],18 nM,18.6 nM,< 100 nM,< 100 nM
C=C(C)[C@@H]1CC[C@]2(C(=O)NCCc3cccc(C(=O)NCC4CCC(C(=O)O)CC4)c3)CC[C@]3(C)C(CCC4[C@@]5(C)CC[C@H](O)C(C)(C)C5CC[C@]43C)C12 (some centres unmarked) [Example 211],19 nM,11.2 nM,–,–
C=C(C)[C@@H]1CC[C@]2(C(=O)NCCc3cccc(C(=O)N[C@H](C)C4CCC(C(=O)OC)CC4)c3)CC[C@]3(C)C(CCC4[C@@]5(C)CC[C@H](O)C(C)(C)C5CC[C@]43C)C12 (some centres unmarked) [Example 213],22 nM,38.9 nM,–,–
C=C(C)[C@@H]1CC[C@]2(C(=O)NCc3cc(C(=O)NCc4cccc(C(=O)O)c4)ccc3F)CC[C@]3(C)C(CCC4[C@@]5(C)CC[C@H](O)C(C)(C)C5CC[C@]43C)C12 (some centres unmarked) [Example 101],3.2 nM,28.3 nM,< 100 nM,< 100 nM
C=C(C)[C@@H]1CC[C@]2(C(=O)NCCc3cccc(C(=O)NCCc4cccc(C(=O)O)c4)c3)CC[C@]3(C)C(CCC4[C@@]5(C)CC[C@H](O)C(C)(C)C5CC[C@]43C)C12 (some centres unmarked) [Example 59],68 nM,66.1 nM,< 100 nM,< 100 nM
C=C(C)[C@@H]1CC[C@]2(C(=O)NCc3cccc(C(=O)NCc4ccc(F)c(C(=O)OC)c4)c3)CC[C@]3(C)C(CCC4[C@@]5(C)CC[C@H](O)C(C)(C)C5CC[C@]43C)C12 (some centres unmarked) [Example 25],100 nM,40.4 nM,< 100 nM,< 100 nM
C=C(C)[C@@H]1CC[C@]2(C(=O)NCc3cccc(C(=O)NCCCCCCC(=O)O)c3)CC[C@]3(C)C(CCC4[C@@]5(C)CC[C@H](O)C(C)(C)C5CC[C@]43C)C12 (some centres unmarked) [Example 2],940 nM,46.7 nM,–,< 100 nM
C=C(C)[C@@H]1CC[C@]2(C(=O)NCCc3cccc(C(=O)NCc4ccc(C(=O)NCCN5CCCCC5)cc4)c3)CC[C@]3(C)C(CCC4[C@@]5(C)CC[C@H](O)C(C)(C)C5CC[C@]43C)C12 (some centres unmarked) [Example 172],14 nM,93 nM,–,–
C=C(C)[C@@H]1CC[C@]2(C(=O)NCCc3cccc(C(=O)NCc4ccc(C(=O)N[C@H](Cc5c[nH]cn5)C(=O)OC)cc4)c3)CC[C@]3(C)C(CCC4[C@@]5(C)CC[C@H](O)C(C)(C)C5CC[C@]43C)C12 (some centres unmarked) [Example 170],5 nM,10 nM,–,–
C=C(C)[C@@H]1CC[C@]2(C(=O)NCc3cccc(C(=O)NCC(C)c4cccc(C(=O)O)c4)c3)CC[C@]3(C)C(CCC4[C@@]5(C)CC[C@H](O)C(C)(C)C5CC[C@]43C)C12 (some centres unmarked) [Example 19],19 nM,6.2 nM,< 100 nM,< 100 nM
C=C(C)[C@@H]1CC[C@]2(C(=O)NCCc3cccc(C(=O)NCc4ccc(C(=O)OC)o4)c3)CC[C@]3(C)C(CCC4[C@@]5(C)CC[C@H](O)C(C)(C)C5CC[C@]43C)C12 (some centres unmarked) [Example 155],17 nM,25.6 nM,–,–
C=C(C)[C@@H]1CC[C@]2(C(=O)NCCc3ccc(F)c(C(=O)NCc4ccc(C(=O)OC)cn4)c3)CC[C@]3(C)C(CCC4[C@@]5(C)CC[C@H](O)C(C)(C)C5CC[C@]43C)C12 (some centres unmarked) [Example 261],8.9 nM,14.5 nM,–,–
C=C(C)[C@@H]1CC[C@]2(C(=O)NCCc3ccc(F)c(C(=O)NCc4ccc(C(=O)O)cn4)c3)CC[C@]3(C)C(CCC4[C@@]5(C)CC[C@H](O)C(C)(C)C5CC[C@]43C)C12 (some centres unmarked) [Example 262],7.2 nM,11.5 nM,–,–
C=C(C)[C@@H]1CC[C@]2(C(=O)NCCc3cccc(C(=O)NCc4ccc(C(=O)O)cc4F)c3)CC[C@]3(C)C(CCC4[C@@]5(C)CC[C@H](O)C(C)(C)C5CC[C@]43C)C12 (some centres unmarked) [Example 69],670 nM,11 nM,–,< 100 nM
C=C(C)[C@@H]1CC[C@]2(C(=O)NCCc3cccc(C(=O)NCc4ccc(C(=O)N[C@H](Cc5ccc(O)cc5)C(=O)OC)cc4)c3)CC[C@]3(C)C(CCC4[C@@]5(C)CC[C@H](O)C(C)(C)C5CC[C@]43C)C12 (some centres unmarked) [Example 165],20 nM,13 nM,–,–
C=C(C)[C@@H]1CC[C@]2(CNCc3cccc(C(=O)NCc4cccc(C(=O)O)c4)c3)CC[C@@]3(C)C(CCC4[C@@]5(C)CC[C@H](O)C(C)(C)C5CC[C@]43C)C12 (some centres unmarked) [Example 143],1300 nM,120 nM,–,–
C=C(C)[C@@H]1CC[C@]2(C(=O)NCCc3cccc(C(=O)NCc4ccc(C(=O)N[C@@H](C(=O)O)[C@H](C)N5CCN(C)CC5)cc4)c3)CC[C@]3(C)C(CCC4[C@@]5(C)CC[C@H](O)C(C)(C)C5CC[C@]43C)C12 (some centres unmarked) [Example 177],92 nM,8 nM,–,–
